According to ChEMBL document CHEMBL1201862, “PubChem BioAssay data set” (2004):
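96-well plates; 48 h exposure; 5 concentrations. Endpoints by linear interpolation between flanking doses. Not reached: highest tested concentration assigned. GI50 marks 50% less growth.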 Active and inactive are the calls of the source. Rule as the data show it: active = GI50 up to about 1.1 µM and inactive = higher.

Experiments:
Assay in all cases: DTP human tumour cell line panel, 48 h
A498 = system: A498
COLO 205 = system: COLO 205
HCC 2998 = system: HCC 2998
HL-60 = system: HL-60
IGROV-1 = system: IGROV-1
LOX IMVI = system: LOX IMVI
M14 = system: M14
MCF7 = system: MCF7
MDA-MB-435 = system: MDA-MB-435
MDA-N = system: MDA-N
MOLT-4 = system: MOLT-4
Malme-3M = system: Malme-3M
NCI-H23 = system: NCI-H23
NCI-H460 = system: NCI-H460
RPMI-8226 = system: RPMI-8226
SK-MEL-28 = system: SK-MEL-28
SK-MEL-5 = system: SK-MEL-5
SNB-19 = system: SNB-19
SW-620 = system: SW-620
UACC-62 = system: UACC-62

Measured: GI50

CC(=O)[C@@]1(O)CC[C@H]2[C@@H]3C[C@H](C)C4=CC(=O)C=C[C@]4(C)[C@@]3(F)[C@@H](O)C[C@@]21C [FLUOROMETHOLONE]
inactive: A498 > 100 µM | COLO 205 > 100 µM | HCC 2998 > 100 µM | HL-60 > 100 µM | IGROV-1 > 100 µM | LOX IMVI > 100 µM | M14 > 100 µM | MCF7 > 100 µM | MDA-MB-435 > 100 µM | MDA-N > 100 µM | MOLT-4 > 100 µM | Malme-3M > 100 µM | NCI-H23 > 100 µM | NCI-H460 > 100 µM | RPMI-8226 > 14.6 µM | SK-MEL-28 > 100 µM | SK-MEL-5 > 100 µM | SNB-19 > 100 µM | SW-620 > 100 µM | UACC-62 > 100 µM
